Results reported in US8916702B2 (priority 2012, dated 2014).
Like-named read-outs stand apart in the source and are kept apart here.

System: HCV pseudoparticles (genotype 1a HCV E1 and E2 envelope, H77C isolate)
Assay: microbe, parasite or virus in culture
Format: cell-based
Conditions: Hepatitis C virus
[1] = Huh-7, 48 h, HCV pseudoparticle infection of Huh7 cells, luciferase 2 days after infection, average of duplicates
[2] = Huh-7, 48 h, read-out: Activity (EC50 class), HCV pseudoparticle infection of Huh7 cells, luciferase 2 days after infection, EC50 expressed as class A/B
[3] = Huh-7, read-out: Activity (EC50 class), HCV pseudoparticles (genotype 1a, H77C) in Huh7 cells, EC50 expressed as class A/B
[4] = Huh-7, 48 h, HCV pseudoparticles (genotype 1a, H77C) in Huh7 cells, average of duplicate, luciferase 2 days after infection
[5] = Huh-7, 48 h, read-out: Activity (EC50 class), HCV pseudoparticles, Huh7 cells, luciferase 2 days after infection, average of duplicates

Compound	EC50 [2]	EC50 [3]	other results
COC(=O)[C@H](CNC(=O)C(=O)Nc1ccc(OC)nc1)NC(=O)c1ccc(Nc2nc(NC3(c4ccc(Cl)cc4)CC3)nc(OCC(F)(F)F)n2)cc1 [Compound 1242]	0.01 to 10 nM	–	EC50 [1]: 0.32 nM
Cc1ccc(CNC(=O)C(=O)NCC[C@H](NC(=O)c2ccc(Nc3nc(NC4(c5ccc(Cl)cc5)CC4)nc(OCC(F)(F)F)n3)cc2)C(=O)O)cc1F [Compound 1191]	0.01 to 10 nM	–	EC50 [1]: 0.17 nM
CC(C)(C)CNC(=O)C(=O)NC[C@H](NC(=O)c1ccc(Nc2nc(NC3(c4ccc(Cl)cc4)CC3)nc(OCC(F)(F)F)n2)cc1)C(=O)O [Compound 1450]	0.01 to 10 nM	–	–
COC(=O)[C@H](CNC(=O)C(=O)Nc1ccc(C(F)(F)F)cc1)NC(=O)c1ccc(Nc2nc(NC3(c4ccc(Cl)cc4)CC3)nc(OCC(F)(F)F)n2)cc1 [Compound 1255]	0.01 to 10 nM	–	EC50 [1]: 1.1 nM
CC(C)(CNC(=O)C(N)=O)CNC(=O)c1ccc(Nc2nc(NC3(c4ccccc4F)CC3)nc(OCC(F)(F)F)n2)cc1 [Compound 3243]	–	0.01 to 10 nM	–
O=C(NCc1cccnc1)C(=O)NC[C@@H](NC(=O)c1ccc(Nc2nc(NC3(c4ccc(Cl)cc4)CC3)nc(OCC(F)(F)F)n2)cc1)C(=O)O [Compound 1043]	0.01 to 10 nM	–	–
O=C(NCC[C@H](NC(=O)c1ccc(Nc2nc(NC3(c4ccc(Cl)cc4)CC3)nc(OCC(F)(F)F)n2)cc1)C(=O)O)C(=O)Nc1ccc(-c2ccncc2)cc1 [Compound 1525]	0.01 to 10 nM	–	–
Cc1ccc(NC(=O)C(=O)NCC(C)(C)CNC(=O)c2ccc(Nc3nc(NC4(c5ccc(Cl)cc5)CC4)nc(OCC(F)(F)F)n3)cc2-n2nnnc2C)cc1 [Compound 3518]	–	0.01 to 10 nM	EC50 [4]: 0.097 nM
Cc1ccc(NC(=O)C(=O)NCC(C)(C)CNC(=O)c2ccc(Nc3nc(NC4(c5ccc(Cl)cc5)CC4)nc(OCc4ccc(C(C)C)cc4)n3)cc2)cc1 [Compound 3839]	–	–	EC50 (Huh-7, 48 h, HCV pseudoparticles, Huh7 cells, luciferase 2 days after infection, average of duplicates): 0.078 nM; EC50 [5]: 0.01 to 10 nM
COc1ccc(NC(=O)C(=O)NCC[C@H](NC(=O)c2ccc(Nc3nc(NC4(c5ccc(Cl)cc5)CC4)nc(OCC(F)(F)F)n3)cc2)C(=O)O)cn1 [Compound 1262]	0.01 to 10 nM	–	–
COc1cc(Nc2nc(NC3(c4ccc(Cl)cc4)CC3)nc(OCC(F)(F)F)n2)ccc1C(=O)NCC(C)(C)CNC(=O)C(N)=O [Compound 3387]	–	0.01 to 10 nM	EC50 [4]: 0.068 nM
COC(=O)[C@H](CNC(=O)C(=O)NCCc1ccc(OC)cc1)NC(=O)c1ccc(Nc2nc(NC3(c4ccc(Cl)cc4)CC3)nc(OCC(F)(F)F)n2)cc1 [Compound 1287]	0.01 to 10 nM	–	–
COC(=O)C(CNC(=O)C(=O)NC1CCCC(NC(=O)OC(C)(C)C)C1)NC(=O)c1ccc(Nc2nc(NC3(c4ccc(Cl)cc4)CC3)nc(OCC(F)(F)F)n2)cc1 (centres unmarked) [Compound 1053]	0.01 to 10 nM	–	–
COC(=O)[C@H](CNC(=O)C(=O)NCC1CCCOC1)NC(=O)c1ccc(Nc2nc(NC3(c4ccc(Cl)cc4)CC3)nc(OCC(F)(F)F)n2)cc1 (some centres unmarked) [Compound 1458]	0.01 to 10 nM	–	EC50 [1]: 3.2 nM
COC(=O)[C@H](CCNC(=O)C(=O)Nc1cccc(-n2ccnc2)c1)NC(=O)c1ccc(Nc2nc(NC3(c4ccc(Cl)cc4)CC3)nc(OCC(F)(F)F)n2)cc1 [Compound 3610]	–	–	EC50 [5]: 0.01 to 10 nM
COc1cc(F)ccc1NC(=O)C(=O)NCC(C)(C)CNC(=O)c1ccc(Nc2nc(NC3(c4ccc(Cl)cc4)CC3)nc(OCC(F)(F)F)n2)cc1 [Compound 3075]	–	0.01 to 10 nM	–
O=C(NCC[C@H](NC(=O)c1ccc(Nc2nc(NC3(c4ccc(Cl)cc4)CC3)nc(OCC(F)(F)F)n2)cc1)C(=O)O)C(=O)NC1CCCCC1 [Compound 1179]	0.01 to 10 nM	–	–
CC(C)(CNC(=O)C(=O)Nc1ccc2ccccc2c1)CNC(=O)c1ccc(Nc2nc(NC3(c4ccc(Cl)cc4)CC3)nc(OCC(F)(F)F)n2)cc1 [Compound 3347]	–	0.01 to 10 nM	–
COc1ccc(NC(=O)C(=O)NCC(C)(C)CNC(=O)c2ccc(Nc3nc(NC4(c5ccc(Cl)cc5)CC4)nc(OCC(F)(F)F)n3)cc2)c(OC)c1 [Compound 3067]	–	0.01 to 10 nM	–
COC(=O)[C@H](CCNC(=O)C(=O)Nc1cccc(-c2cccnc2)c1)NC(=O)c1ccc(Nc2nc(NC3(c4ccc(Cl)cc4)CC3)nc(OCC(F)(F)F)n2)cc1 [Compound 3604]	–	–	EC50 [5]: 0.01 to 10 nM
COC(=O)/C(CCNC(=O)C(=O)Nc1cccc(-c2ccncc2)c1)=N\C(=O)c1ccc(Nc2nc(NC3(c4ccc(Cl)cc4)CC3)nc(OCC(F)(F)F)n2)cc1 [Compound 3591]	–	0.01 to 10 nM	–
COC(=O)[C@H](CNC(=O)C(=O)Nc1cccnc1OC)NC(=O)c1ccc(Nc2nc(NC3(c4ccc(Cl)cc4)CC3)nc(OCC(F)(F)F)n2)cc1 [Compound 1240]	0.01 to 10 nM	–	–
COC(=O)[C@H](CCNC(=O)C(=O)Nc1ccc(N2CCN(Cc3ccccc3)CC2)cc1)NC(=O)c1ccc(Nc2nc(NC3(c4ccc(Cl)cc4)CC3)nc(OCC(F)(F)F)n2)cc1 [Compound 3131]	–	0.01 to 10 nM	–

Compound	EC50 [2]	EC50 [3]	other results
CC(C)(CNC(=O)C(=O)Nn1cccc1)CNC(=O)c1ccc(Nc2nc(NC3(c4ccc(Cl)cc4)CC3)nc(OCC(F)(F)F)n2)cc1 [Compound 3242]	–	0.01 to 10 nM	EC50 [4]: 0.03 nM
COC(=O)[C@H](CNC(=O)C(=O)NCc1c(F)cccc1F)NC(=O)c1ccc(Nc2nc(NC3(c4ccc(Cl)cc4)CC3)nc(OCC(F)(F)F)n2)cc1 [Compound 1135]	0.01 to 10 nM	–	EC50 [1]: 1.92 nM
O=C(Nc1cccc(F)c1)C(=O)N(CCO)CCCNC(=O)c1ccc(Nc2nc(NC3(c4ccc(Cl)cc4)CC3)nc(OCC(F)(F)F)n2)cc1 [Compound 3497]	–	0.01 to 10 nM	–
COC(=O)[C@H](CCNC(=O)C(=O)Nc1cc(F)cc(F)c1)NC(=O)c1ccc(Nc2nc(NC3(c4ccc(Cl)cc4)CC3)nc(OCC(F)(F)F)n2)cc1 [Compound 1506]	0.01 to 10 nM	–	–
CCc1cccc(NC(=O)C(=O)NCC(C)(C)CNC(=O)c2ccc(Nc3nc(NC4(c5ccc(Cl)cc5)CC4)nc(OCC(F)(F)F)n3)cc2)c1 [Compound 1591]	0.01 to 10 nM	–	–
COc1ccc(C(NC(=O)C(=O)NCC[C@H](NC(=O)c2ccc(Nc3nc(NC4(c5ccc(Cl)cc5)CC4)nc(OCC(F)(F)F)n3)cc2)C(=O)O)C2CC2)cc1 (some centres unmarked) [Compound 1437]	0.01 to 10 nM	–	–
COC(=O)[C@H](CNC(=O)C(=O)NCCc1ccccc1OC)NC(=O)c1ccc(Nc2nc(NC3(c4ccc(Cl)cc4)CC3)nc(OCC(F)(F)F)n2)cc1 [Compound 1285]	0.01 to 10 nM	–	–
CC(C)(CNC(=O)C(=O)Nc1nc2ccc(OC(F)(F)F)cc2s1)CNC(=O)c1ccc(Nc2nc(NC3(c4ccc(Cl)cc4)CC3)nc(OCC(F)(F)F)n2)cc1 [Compound 3823]	–	–	EC50 [5]: 0.01 to 10 nM
COC(=O)[C@H](CCNC(=O)C(=O)Nc1ccn(C)n1)NC(=O)c1ccc(Nc2nc(NC3(c4ccc(Cl)cc4)CC3)nc(OCC(F)(F)F)n2)cc1 [Compound 1221]	0.01 to 10 nM	–	–
CC(C)(CNC(=O)C(=O)Nc1nc2ccc(O)cc2s1)CNC(=O)c1ccc(Nc2nc(NC3(c4ccc(Cl)cc4)CC3)nc(OCC(F)(F)F)n2)cc1F [Compound 3676]	–	–	EC50 [5]: 0.01 to 10 nM
Cc1cc(F)ccc1NC(=O)C(=O)NCC(C)(C)CNC(=O)c1ccc(Nc2nc(NC3(c4ccc(Cl)cc4)CC3)nc(OCC(F)(F)F)n2)cc1 [Compound 3061]	–	0.01 to 10 nM	–
O=C(NCc1ccc(F)cc1)C(=O)NC[C@H](NC(=O)c1ccc(Nc2nc(NC3(c4ccc(Cl)cc4)CC3)nc(OCC(F)(F)F)n2)cc1)C(=O)O [Compound 1166]	0.01 to 10 nM	–	–
CCOC(=O)[C@H](CCNC(=O)C(N)=O)NC(=O)c1ccc(Nc2nc(NC3(c4ccc(Cl)cc4)CC3)nc(OCC(F)(F)F)n2)cc1 [Compound 1028, (S)-ethyl 4-(2-amino-2-oxoacetamido)-2-(4-(4-(1-(4-chlorophenyl)cyclopropylamino)-6-(2,2,2-trifluoroethoxy)-1,3,5-triazin-2-ylamino)benzamido)butanoate]	0.01 to 10 nM	–	EC50 [1]: 0.4 nM
CC(C)CNC(=O)C(=O)NCC(C)(C)CNC(=O)c1ccc(Nc2nc(NC3(c4ccc(Cl)cc4)CC3)nc(OCC(F)(F)F)n2)cc1 [Compound 1551]	0.01 to 10 nM	–	–
COC(=O)[C@H](CNC(=O)C(=O)Nc1ccc(-c2ccncc2)cc1)NC(=O)c1ccc(Nc2nc(NC3(c4ccc(Cl)cc4)CC3)nc(OCC(F)(F)F)n2)cc1 [Compound 3181]	–	0.01 to 10 nM	–
CCc1nccn1CC1(CNC(=O)C(=O)NCC[C@@H](NC(=O)c2ccc(Nc3nc(NC4(c5ccc(Cl)cc5)CC4)nc(OCC(F)(F)F)n3)cc2)C(=O)OC)CC1 [Compound 1386]	0.01 to 10 nM	–	EC50 [1]: 2.76 nM
CN(CCCNC(=O)c1ccc(Nc2nc(NC3(c4ccc(Cl)cc4)CC3)nc(OCC(F)(F)F)n2)cc1)C(=O)C(N)=O [Compound 3447]	–	0.01 to 10 nM	–
Cn1nccc1NC(=O)C(=O)NCC(C)(C)CNC(=O)c1ccc(Nc2nc(NC3(c4ccc(Cl)cc4)CC3)nc(OCC(F)(F)F)n2)cc1 [Compound 3036]	–	0.01 to 10 nM	–
COCC(NC(=O)C(=O)NCC[C@H](NC(=O)c1ccc(Nc2nc(NC3(c4ccc(Cl)cc4)CC3)nc(OCC(F)(F)F)n2)cc1)C(=O)OC)C1CC1 (some centres unmarked) [Compound 1371]	0.01 to 10 nM	–	–
COC(=O)[C@H](CNC(=O)C(=O)Nc1cccc(Cc2ccccc2)c1)NC(=O)c1ccc(Nc2nc(NC3(c4ccc(Cl)cc4)CC3)nc(OCC(F)(F)F)n2)cc1 [Compound 3714]	–	–	EC50 [5]: 0.01 to 10 nM
CNC(=O)C(=O)NC[C@H](NC(=O)c1ccc(Nc2nc(NC3(c4ccc(Cl)cc4)CC3)nc(OCC(F)(F)F)n2)cc1)C(=O)OC [Compound 1003, (S)-methyl 2-(4-(4-(1-(4-chlorophenyl)cyclopropylamino)-6-(2,2,2-trifluoroethoxy)-1,3,5-triazin-2-ylamino)benzamido)-3-(2-(methylamino)-2-oxoacetamido)propanoate]	0.01 to 10 nM	–	–
COC(=O)[C@H](CCNC(=O)C(=O)Nc1ccc(-c2ccccc2C)cc1)NC(=O)c1ccc(Nc2nc(NC3(c4ccc(Cl)cc4)CC3)nc(OCC(F)(F)F)n2)cc1 [Compound 3304]	–	0.01 to 10 nM	–
